Source: PMC8373237 (Antimicrobial Agents and Chemotherapy, 2021)
Converted amounts (≈) assume the structure as drawn. Read-outs that look alike come from different tables or passages of the source. Marks after values point to notes of the source that are not given here. Square brackets hold non-standard residues; d marks the D form. Peptide text beside a SMILES is read from it. Nphe = O=C(O)CNCc1ccccc1; NPrGly = CCCNCC(=O)O; Sar = CNCC(=O)O

How the values were obtained:
[1] = system: P. aeruginosa PA103 T3SS (ExoU secretion); type: cell-based, Pseudomonas aeruginosa
Kinetic solubility = type: physicochemical
Protocol: […] Then, […] of 15 mM stock compound was added to make a solution of 120 μM final concentration with 0.8% DMSO. The solution was shaken at 37°C for ∼2 h. The solution was passed over a 0.7- μM glass fiber filter. Then, the solution was diluted 1:4 in acetonitrile to crash out any proteins. The solution was centrifuged at 500 × g for 10 min. Avoiding the pellet, 10 μl of supernatant was added to a fresh plate with 90 μl of acetonitrile. The final dilution is 40 times lower. Next, 10 μl of 40× dilution of solution was injected on the Orbi-trap. A 1 μM standard was used for the ratiometric comparison, and the assay was done in triplicate.

[2] = system: Pseudomonas aeruginosa Psc T3SS; conditions: culture-based secretion assay, cited from earlier work
[3] = system: Yersinia pseudotuberculosis Ysc T3SS; conditions: cited from earlier work; for IC50: culture-based secretion assay
[4] = system: Hrc1 T3SS, Pseudomonas syringae; conditions: biochemical assay, cited from earlier work; for lowest known inhibitory concentration (∼), hrpA: ref [108]
[5] = system: Salmonella enterica Typhimurium SPI-1 T3SS; conditions: cited from earlier work
[6] = system: Chlamydiales T3SS, Chlamydia; conditions: cell-based infection assay, cited from earlier work
[7] = system: Y. pseudotuberculosis twin arginine translocation (Tat) system; type: cell-based, Yersinia pseudotuberculosis; conditions: culture optical density, 4 and 6 h
[8] = system: Pseudomonas aeruginosa Psc T3SS; conditions: cited from earlier work
[9] = read-out: IC50, inhibition of secretion of T3SS effector ExoU

## CCCN1CC(=O)N(Cc2ccccc2)CC(=O)N[C@H](C)C(=O)N[C@@H]([C@@H](C)CC)C(=O)N[C@@H](CC(C)C)C(=O)N[C@H](Cc2ccccc2)C1=O [1EpDN 3Ala, EpD1,2N 3Ala] (cyclo(IL[dF][NPrGly][Nphe][dA]))
[1]; read-out: IC50 (Table S1)
  IC50: > 1000 µM
Kinetic solubility
  solubility: 180 µM (≈ 124 µg/mL)

## CCCN1CC(=O)N(Cc2ccccc2)CC(=O)N[C@H](CC(C)C)C(=O)N[C@@H](C)C(=O)N[C@@H](CC(C)C)C(=O)N[C@H](Cc2ccccc2)C1=O [1EpDN 4Ala, EpD1,2N 4Ala] (cyclo(AL[dF][NPrGly][Nphe][dL]))
[1]; read-out: IC50 (Table S1)
  IC50: > 1000 µM
Kinetic solubility
  solubility kinetic: 75 µM (≈ 51.8 µg/mL)

## CCCN1CC(=O)N(Cc2ccccc2)CC(=O)N[C@H](CC(C)C)C(=O)N[C@@H]([C@@H](C)CC)C(=O)N[C@@H](C)C(=O)N[C@H](Cc2ccccc2)C1=O [1EpDN 5Ala, EpD1,2N 5Ala] (cyclo(A[dF][NPrGly][Nphe][dL]I))
[1]; read-out: IC50 (Table S1)
  IC50: > 1000 µM
Kinetic solubility
  solubility kinetic: 127 µM (≈ 87.7 µg/mL)

## CCCN1CC(=O)N(Cc2ccccc2)CC(=O)N[C@H](CC(C)C)C(=O)N[C@@H]([C@@H](C)CC)C(=O)N[C@@H](CC(C)C)C(=O)N[C@H](C)C1=O [1EpDN 6Ala, EpD1,2N 6Ala] (cyclo(IL[dA][NPrGly][Nphe][dL]))
[1]; read-out: IC50 (Table S1)
  IC50: > 1000 µM
Kinetic solubility
  solubility kinetic: 125 µM (≈ 82.1 µg/mL)

## CCCN1CC(=O)N(Cc2ccccc2)CC(=O)N[C@H](CC(C)C)C(=O)N[C@@H]([C@@H](C)CC)C(=O)N[C@@H](CC(C)C)C(=O)N[C@H](Cc2ccccc2)C1=O [1EpDN, EpD1,2N] (cyclo(IL[dF][NPrGly][Nphe][dL]))
[1]; read-out: IC50 (Table S1)
  IC50: 8.2 µM
[1]; [9]
  IC50: ~8 µM
[2]; ref [22], read-out: IC50, ExoU secretion
  IC50: 8.2 µM
[3]; ref [22], read-out: IC50, YopE secretion
  IC50: 14.3 µM
Kinetic solubility
  solubility: 14 to 17 µM (≈ 10.3 to 12.5 µg/mL)

## CCCN1CC(=O)N(Cc2ccccc2)CC(=O)N[C@@H](CC(C)C)C(=O)N[C@@H]([C@@H](C)CC)C(=O)N[C@@H](CC(C)C)C(=O)N[C@H](Cc2ccccc2)C1=O [2EpDN, 2-EpD1,2N] (cyclo(IL[dF][NPrGly][Nphe]L))
[1]; read-out: IC50 (Table S1)
  IC50: 15.3 µM
Kinetic solubility
  solubility kinetic: 12 µM (≈ 8.8 µg/mL)

## CCCN1CC(=O)N(Cc2ccccc2)CC(=O)N[C@H](CC(C)C)C(=O)N[C@@H]([C@@H](C)CC)C(=O)N[C@H](CC(C)C)C(=O)N[C@H](Cc2ccccc2)C1=O [3EpDN, 3-EpD1,2N] (cyclo(I[dL][dF][NPrGly][Nphe][dL]))
[1]; read-out: IC50 (Table S1)
  IC50: 16 µM
Kinetic solubility
  solubility kinetic: 18 µM (≈ 13.2 µg/mL)

## O=C(O)c1ccc(O)cc1 [4-Hydroxybenozic acid]
[4]
  lowest known inhibitory concentration (∼), hrpA: ∼2.5 mM hrpA^e

## CC[C@H](C)[C@@H]1NC(=O)[C@H](CC(C)C)NC(=O)CN(Cc2ccccc2)C(=O)CN(C)C(=O)[C@@H](Cc2ccccc2)NC(=O)[C@@H](CC(C)C)NC1=O [4EpDN 1Sar, 4-EpD1,2N 1Sar] (cyclo(I[dL][dF][Sar][Nphe]L))
[1]
  T3SS inhibitory activity (ExoU secretion), in words: significantly reduced activity
[1]; read-out: IC50 (Table S1)
  IC50: 19 µM
Kinetic solubility; DMEM (no antibiotics)
  solubility: 6 µM (≈ 4.23 µg/mL)
Kinetic solubility; M9
  solubility: 4 µM (≈ 2.82 µg/mL)

## CCCN1CC(=O)N(Cc2ccccc2)CC(=O)N[C@@H](CC(C)C)C(=O)N[C@@H]([C@@H](C)CC)C(=O)N[C@H](CC(C)C)C(=O)N[C@@H](Cc2ccccc2)C1=O [5EpDN, 5-EpD1,2N] (cyclo(F[NPrGly][Nphe]LI[dL]))
[1]; read-out: IC50 (Table S1)
  IC50: 6.3 µM
Kinetic solubility
  solubility kinetic: 13 µM (≈ 9.53 µg/mL)

## CCCN1CC(=O)N(Cc2ccccc2)CC(=O)N[C@H](CC(C)C)C(=O)N[C@@H]([C@@H](C)CC)C(=O)N[C@H](CC(C)C)C(=O)N[C@@H](Cc2ccccc2)C1=O [6EpDN, 6-EpD1,2N] (cyclo(F[NPrGly][Nphe][dL]I[dL]))
[1]; read-out: IC50 (Table S1)
  IC50: > 1000 µM
Kinetic solubility
  solubility kinetic: 1 µM (≈ 0.733 µg/mL)

## CCCN1CC(=O)N(Cc2ccccc2)CC(=O)N[C@H](CC(C)C)C(=O)N[C@@H]([C@@H](C)CC)C(=O)N[C@@H](CC(C)C)C(=O)N[C@@H](Cc2ccccc2)C1=O [8EpDN, 8-EpD1,2N] (cyclo(F[NPrGly][Nphe][dL]IL))
[1]; read-out: IC50 (Table S1)
  IC50: 41.5 µM
Kinetic solubility
  solubility kinetic: 1 µM (≈ 0.733 µg/mL)

## CCCN1CC(=O)N(Cc2ccccc2)CC(=O)N[C@@H](CC(C)C)C(=O)N[C@H]([C@H](C)CC)C(=O)N[C@H](CC(C)C)C(=O)N[C@@H](Cc2ccccc2)C1=O [9EpDN, 9-EpD1,2N] (cyclo(F[NPrGly][Nphe]L[dI][dL]))
[1]; read-out: IC50 (Table S1)
  IC50: 12.8 µM
[1]; [9]
  IC50: ~13 µM
Kinetic solubility
  solubility kinetic: 10 µM (≈ 7.33 µg/mL)

## O=c1cc(-c2ccccc2)oc2cc(O)c(O)c(O)c12 [Baicalein]
[5]; culture-based secretion assay, ref [84], [85], read-out: IC50, SopE2 secretion
  IC50: 3.6 µM
[6]; ref [84], [85]
  IC50: 500 µM

## Cc1ccc(S(=O)(=O)/C=C/C#N)cc1 [Bay 11-7082]
[7]
  growth of SufI-β-lactamase Tat reporter bacteria in penicillin G / Tat inhibition, in words: strongly reduced growth of bacteria

## CCOc1cc(CN2N=C(C(=O)Nc3ccc(F)cc3F)SCC2=O)ccc1O [Fluorothiazinon]
[2]; ref [93]–[96]
  lowest known inhibitory concentration (∼), ExoT, ExoY secretion: ∼20 μg/ml ExoT^b ExoY^b
[5]; footnote printed as a, ref [93]–[96]
  lowest known inhibitory concentration (∼), SipA: ~50 µM
[6]; ref [93]–[96]
  lowest known inhibitory concentration (∼), Chlamydia: ∼25^c μM

## CCCCc1ccc(C(=O)O)nc1 [Fusaric acid]
[5]; culture-based secretion assay, ref [101], read-out: IC50, SipC secretion
  IC50: 53.5 µM

## O=C(N/N=C/c1cc(Br)cc(Br)c1O)c1ccc([N+](=O)[O-])cc1 [INP0007]
[5]; culture-based secretion assay, ref [64], [72]
  lowest known inhibitory concentration (∼), SipAC secretion: ∼100 SipAC^b μM
[3]
  lowest known inhibitory concentration (∼), YopE secretion: ∼50 YopE^b μM

## Cc1cc(Cl)cc(/C=N/NC(=O)c2ccc(O)cc2O)c1O [INP0341]
[6]; ref [68], [70]
  lowest known inhibitory concentration (∼), Chlamydia: ∼20^c μM
[8]; cell-based infection assay, ref [68], [70]
  lowest known inhibitory concentration (∼), PA: ∼80^c μM

## O=C(N/N=C/c1c(O)ccc2ccccc12)c1ccc(Cl)cc1 [INP0400]
[6]; ref [70]
  lowest known inhibitory concentration (∼), Chlamydia: ∼20^c μM

## O=C(N/N=C/c1ccc(O)c(O)c1O)c1ccccc1 [INP0401]
[4]; ref [78]
  lowest known inhibitory concentration (∼), hrp: ∼50 hrp^e μM

## CC(C)=CCc1c(O)cc2oc(-c3ccc(O)cc3)c(O)c(=O)c2c1O [Licoflavonol]
[5]; culture-based secretion assay, ref [86]
  lowest known inhibitory concentration (∼), SipC secretion: ∼50 SipC^b μM

## CC(Oc1ccc(Cl)cc1Cl)C(=O)NCc1ccc2c(c1)OCO2 (centres unmarked) [MBX1641]
[2]; ref [65], read-out: IC50, ExoS secretion
  IC50: 10 µM
[6]; ref [65]
  lowest known inhibitory concentration (∼), Chlamydia: ∼10^c μM

## CCC(Oc1ncc(Cl)cc1Cl)C(=O)NCc1ccc2sccc2c1 (centres unmarked) [MBX2401]
[2]; ref [44], read-out: IC50, ExoS secretion
  IC50: 1.2 µM

## O=C(N/N=C/c1cc(Br)cc(Br)c1O)c1cccnc1 [ME0052]
[3]
  lowest known inhibitory concentration (∼), Yops secretion: ∼20 Yops^b μM

## COc1c2cc(c(O)c1OC)CCCC[C@@H](O)CCc1ccc(O)c-2c1 [Myricanol]
[5]; footnote printed as a, ref [107], read-out: IC50, SipC
  IC50: 41.3 µM

## O=C1C=CC(=O)N1c1ccccc1 [N-phenylmaleimide]
[7]
  growth of SufI-β-lactamase Tat reporter bacteria in penicillin G / Tat inhibition, in words: strongly reduced growth of bacteria

## COc1ccc(C(C)=O)c(O)c1 [Paeonol]
[5]; culture-based secretion assay, ref [99]
  lowest known inhibitory concentration (∼), Sips secretion: ∼95 Sips^b μM

## C[n+]1cc2c3c(ccc2c2ccc4cc5c(cc4c21)OCO5)OCO3 [Sanguinarine chloride]
[5]; footnotes b and f: secretion assay and translocation assay, ref [88]
  lowest known inhibitory concentration (∼), SipA: ∼5 SipA^b^f μM

## COc1cc(C=O)cc(OC)c1O [Syringaldehyde]
[5]; culture-based secretion assay, ref [100]
  lowest known inhibitory concentration (∼), Sips secretion: ∼180 Sips^b μM

## COc1cc(C(=O)O)ccc1O [Vanillic acid]
[4]
  lowest known inhibitory concentration (∼), hrpA: ∼2.5 mM hrpA^e

## Cc1c(C)c2c(c(C)c1O)CC[C@@](C)(CCC[C@H](C)CCC[C@H](C)CCCC(C)C)O2 [α-tocopherol]
[8]; footnotes c and f: cell-based infection assay, ExoY translocation assay, ref [105]
  lowest known inhibitory concentration (∼), PA, ExoY: ∼10^c ExoY^f μM

## (-)-Hopeaphenol
[2]; ref [97]
  lowest known inhibitory concentration (∼), ExoS secretion: ∼50 ExoS^b μM
[6]; ref [97]
  lowest known inhibitory concentration (∼), Chlamydia: ∼25^c μM
[3]; ref [97], read-out: IC50, YopD secretion
  IC50: 3.3 µM
